Experimental data published in PMC7534258, “Novel temporin L antimicrobial peptides: promoting self-assembling by lipidic tags to tackle superbugs” (Journal of Enzyme Inhibition and Medicinal Chemistry, 2020).
Converted amounts (≈) assume the structure as drawn. Where a SMILES comes first, the peptide text is derived from it. [ ]: non-standard residue; d: D form. The star is where a group is joined. Heptanoyl = CCCCCCC(=O)*; Pentanoyl = CCCCC(=O)*

Assays:
P. aeruginosa ATCC 27853 = experiment: Broth microdilution MIC, reference strain; assay type: cell-based, Pseudomonas aeruginosa; conditions: for MIC: Pseudomonas aeruginosa, ATCC27853, antibiotics, 16–18 h at 37 °C, read-out: Antimicrobial activity (MIC) P. aeruginosa ATCC 27853
Procedure: (§1) Staphylococcus aureus ATCC 25923, Pseudomonas aeruginosa ATCC 27853 and Klebsiella pneumoniae ATCC BAA-1705 (carbapenemase producer) were obtained from the American Type Culture Collection (Rockville, MD).
(§2) Identification was performed by sub-culturing on Tryptic Soy Agar (TSA, Becton Dickinson) and by biochemical characterisation using the Vitek II system (Biomerieux). The antimicrobial susceptibility testing of all isolates was determined using Vitek II system and results were interpreted according to European Committee on Antimicrobial Susceptibility Testing (EUCAST version 9.0, 2019). P. aeruginosa was cultured in Brain Heart Infusion broth (BHI, OXOID), S. aureus and K. pneumoniae were cultured in Tryptic Soya broth (TSB, OXOID), under aerobic conditions at 37 °C, for 24 h on an orbital shaker at 200 rpm.
(§3) Minimal inhibitory concentrations (MIC) of all the peptides were determined in Mueller–Hinton medium by the broth microdilution assay, following the procedure already described[22]^,[34]. The compounds were added to bacterial suspension in each well yielding a final cell concentration of 1 × 10^6 CFU/ml and a final compound concentration ranging from 0.78 to 100 µM. Negative control wells were set to contain bacteria in Mueller–Hinton broth plus the amount of vehicle (ethanol) used to dilute each compound. Positive controls included vancomycin (2 µg/ml), tobramycin (4 µg/ml), gentamycin (4 µg/ml), and imipenem (8 µg/ml).

[1] = system: K. pneumoniae ATCC BAA-1705; experiment: Broth microdilution MIC, reference strain; assay type: cell-based, Klebsiella pneumoniae; conditions: for MIC: Klebsiella pneumoniae, ATCCBAA1705, antibiotics, 16–18 h at 37 °C, read-out: Antimicrobial activity (MIC) K. pneumoniae ATCC BAA-1705
Procedure: as §1, §2, §3

S. aureus ATCC 25923 = experiment: microbe, parasite or virus in culture; conditions: for MIC: Staphylococcus aureus, ATCC25923, read-out: Antimicrobial activity (MIC) S. aureus ATCC 25923
Procedure: as §1, §2, §3

KpCR1 = experiment: microbe, parasite or virus in culture; conditions: Klebsiella pneumoniae, read-out: Antimicrobial activity (MIC) KpCR1
Procedure: (§4) Clinical strains of P. aeruginosa (Pa1, Pa2 and Pa3), K. pneumoniae (KpCR1, KpCR2 and KpCR3), and S. aureus (Sa1, Sa2 and Sa3) were isolated from bloodstream or pulmonary infections, and belong to a collection of bacterial strains established between 2010 and 2018 at the Department of Molecular Medicine and Medical Biotechnologies (University Federico II, Naples) for research use.
as §2, §3

KpCR2 = experiment: microbe, parasite or virus in culture; conditions: Klebsiella pneumoniae, read-out: Antimicrobial activity (MIC) KpCR2
Procedure: as §4, §2, §3

KpCR3 = experiment: microbe, parasite or virus in culture; conditions: Klebsiella pneumoniae, read-out: Antimicrobial activity (MIC) KpCR3
Procedure: as §4, §2, §3

Pa1 = experiment: microbe, parasite or virus in culture; conditions: Pseudomonas aeruginosa, PA1, read-out: Antimicrobial activity (MIC) Pa1
Procedure: as §4, §2, §3

Pa2 = experiment: microbe, parasite or virus in culture; conditions: Pseudomonas aeruginosa, read-out: Antimicrobial activity (MIC) Pa2
Procedure: as §4, §2, §3

Pa3 = experiment: microbe, parasite or virus in culture; conditions: Pseudomonas aeruginosa, read-out: Antimicrobial activity (MIC) Pa3
Procedure: as §4, §2, §3

Sa1 = experiment: microbe, parasite or virus in culture; conditions: Staphylococcus aureus, MRSA, read-out: Antimicrobial activity (MIC) Sa1
Procedure: as §4, §2, §3

Sa2 = experiment: microbe, parasite or virus in culture; conditions: Staphylococcus aureus, MRSA, read-out: Antimicrobial activity (MIC) Sa2
Procedure: as §4, §2, §3

Sa3 = experiment: microbe, parasite or virus in culture; conditions: Staphylococcus aureus, MRSA, read-out: Antimicrobial activity (MIC) Sa3
Procedure: as §4, §2, §3

[2] = Critical aggregation concentration, Nile red fluorescence; assay type: physicochemical; conditions: aqueous solution, pH 7, Nile red, 1–200 µM peptide
Procedure: The solvatochromic fluorescent probe Nile red is widely used to determine the CAC of self-assembling peptides. […] Since Nile red is poorly soluble in water, there is a large preference to partition aggregates, which offer hydrophobic binding sites. Initially, 1 mM methanolic Nile red was prepared. Then, the methanolic Nile red was diluted with water in order to have a final concentration of 500 nM (solution A). The peptides 1B, 2B, 3B, C, were prepared as follows[39]: peptide stock solutions (0.4 mM) were prepared by dissolving the single peptides in water (1B, C) or tetrahydrofuran (3B, 2B) and sonicating for 15 min. Different aliquots were taken to prepare solutions of each peptide at different concentrations (1, 5, 10, 15, 20, 30, 50, 100 and 200 µM). Then, all solutions were diluted with water, sonicated for 15 min and freeze-dried. Finally, the peptide powders were dissolved with the right volume of solution A and allowed to stand in the dark place for 1 h before measurement. Emission spectra for each solution were measured by a Cary Eclipse Varian spectrometer. Spectra were taken between 570 and 700 nm at a slit width of 5 nm, using an excitation wavelength of 550 nm and a 10 nm slit width. The measurements were performed in triplicate. The data were analysed by plotting the maximum emission fluorescence corresponding wavelength (y) as a function of peptide concentration (x) and fitting with the sigmoidal Boltzmann equation: y=A1+A2/1+e^(x−x0/Δx)+A2 where the variables A1 and A2 correspond to the upper and lower limits of the sigmoid, x0 is the inflection point of the sigmoid and Δx is the parameter, which characterises the steepness of the function. The sigmoidal plot allows calculating the CAC value at x0.

ANTS/DPX leakage assay = conditions: ANTS/DPX-loaded LUVs, Gram-positive and Gram-negative mimicking
Procedure: Large unilamellar vesicles (LUVs) and small unilamellar vesicles (SUVs) consisting of DOPG/CL (58/42 ratio in moles) and DOPG/DOPE/CL (63/23/12 ratio in moles), mimic the Gram-positive membrane and Gram-negative membrane, respectively. LUVs were prepared using the extrusion method as previously described. In particular, first lipid films were prepared by dissolving an appropriate amount of lipids in chloroform and fluorescent probes were added when necessary, then dried under a nitrogen gas stream and freeze-dried overnight. In all experiments, we used a final lipid concentration of 0.1 mM. For fluorescence experiments, buffer was added to dry lipid films and vortexed for 1 h; then the lipid suspension was freeze-thawed 6 times and extruded 10 times through polycarbonate membranes with 0.1 µm diameter pores to obtain LUVs. For circular dichroism measurements, peptide samples in SUVs were prepared as reported in the following protocol. Lipids were dissolved in chloroform and added to an equal volume of peptide solution dissolved in TFE containing appropriate peptide concentration. The samples were vortexed and lyophilised overnight. The dry samples were rehydrated with phosphate buffer 5 mM, pH 7.4 for 1 h and sonicated for 30 min.
The ANTS/DPX leakage assay was used to measure the ability of peptide to permeabilise and induce leakage of encapsulated dyes. After lipid films were prepared as previously described, ANTS (12.5 mM) and DPX (45 mM) were dissolved in 2 ml water, were added to lipid films and then lyophilised overnight. The lipid films with encapsulated ANTS and DPX were hydrated with PBS 1X buffer, vortexed for 1 h and then treated to obtain LUVs. The non-encapsulated ANTS and DPX were removed by gel filtration using a Sephadex G-50 column (1.5 cm × 10 cm) at room temperature. To start up the leakage experiment, a 2 mM peptide stock solution was prepared and LUVs were titrated with the peptide. Samples were excited at 385 nm (slit width, 5 nm) and fluorescence emission was recorded at 512 nm (slit width, 5 nm). After the addition of peptide, we evaluated leakage of encapsulated ANTS through a change in fluorescence spectra of ANTS and DPX. In particular, leakage is associated to an increase in ANTS fluorescence at 512 nm. Complete release of ANTS was obtained by using 0.1% Triton X, which caused the total destruction of liposomes. The percentage of leakage was calculated as % leakage =(Fi−F0)/(Ft−F0), where F0 represents the fluorescence of intact LUVs before the addition of peptide, and Fi and Ft denote the intensities of the fluorescence achieved after peptide and Triton-X treatment, respectively.

sheep red blood cells = assay type: cell-based; conditions: red cells of sheep, 24 h
Procedure: Sheep red blood cells were purchased from OXOID, SR0051D.
The haemolytic assay was conducted following the procedure described. […] Controls were erythrocytes treated with vehicle (water).

HaCaT cells = conditions: 24 h, at 6.25 µM
Procedure: The human immortalised keratinocytes HaCaT cells (AddexBio, San Diego, CA, USA) were cultured in Dulbecco’s modified Eagle’s medium containing 4 mM glutamine (DMEMg), supplemented with 10% heat-inactivated foetal bovine serum (FBS) and 0.1 mg/ml of penicillin and streptomycin, at 37 °C and 5% CO2, in 25 cm^2 or 75 cm^2 flasks[33].
The colorimetric MTT assay was carried out to measure cellular metabolic activity in terms of cell viability[33]^,[36]. Viable cells are able to reduce, by active mitochondrial dehydrogenases, the yellow salt MTT to purple formazan crystals. Briefly, 4 × 10^4 HaCaT cells, suspended in DMEMg supplemented with 2% FBS, were plated in each well of a 96-well microtiter plate. After overnight incubation, at 37 °C in a 5% CO2 atmosphere, keratinocytes were treated for 24 h with fresh serum-free medium containing the peptides 3B and C at concentrations ranging from 3.12 µM to 25 µM. Afterward, the culture medium was replaced with Hank’s buffer supplemented with 0.5 mg/ml MTT and the plate was incubated at 37 °C and 5% CO2 for 4 h. At the end, acidified isopropanol was employed to dissolve the formazan crystals. Cell viability was calculated, with respect to cells not treated with peptide, by absorbance measurements at 570 nm using a microplate reader (Infinite M200; Tecan, Salzburg, Austria)[33]. […]

| Compound | MIC (P. aeruginosa ATCC 27853) [µg/mL] | MIC [1] [µg/mL] | MIC (S. aureus ATCC 25923) [µg/mL] | MIC (KpCR1) [µg/mL] | MIC (KpCR2) [µg/mL] | MIC (KpCR3) [µg/mL] | MIC (Pa1) [µg/mL] | MIC (Pa2) [µg/mL] | MIC (Pa3) [µg/mL] | MIC (Sa1) [µg/mL] | MIC (Sa2) [µg/mL] | MIC (Sa3) [µg/mL] | Antimicrobial activity (MIC) P. aeruginosa ATCC 27853 (P. aeruginosa ATCC 27853) [µM] | Antimicrobial activity (MIC) K. pneumoniae ATCC BAA-1705 [1] [µM] | Antimicrobial activity (MIC) S. aureus ATCC 25923 (S. aureus ATCC 25923) [µM] | CAC (critical aggregation concentration) [2] [µM] | membrane leakage ability (in words) (ANTS/DPX leakage assay) | haemolytic potency (sheep red blood cells) | reduction in cell viability (HaCaT cells) |
| --- | --- | --- | --- | --- | --- | --- | --- | --- | --- | --- | --- | --- | --- | --- | --- | --- | --- | --- | --- |
| CNC(C)C1CCC(N)C(OC2C(N)CC(N)C(OC3OCC(C)(O)C(NC)C3O)C2O)O1 (stereo not drawn) [Gentamicin] | 4 (≈ 8.38 µM) | 4 (≈ 8.38 µM) | 1 (≈ 2.09 µM) | 1 (≈ 2.09 µM) | > 8 | 1 (≈ 2.09 µM) | > 4 | > 4 | > 4 | < 1 | < 1 | < 1 |  |  |  |  |  |  |  |
| NC[C@H]1O[C@H](O[C@H]2[C@H](O)[C@@H](O[C@H]3O[C@H](CO)[C@@H](O)[C@H](N)[C@H]3O)[C@H](N)C[C@@H]2N)[C@H](N)C[C@@H]1O [Tobramycin] | 4 (≈ 8.56 µM) | > 4 | 1 (≈ 2.14 µM) | 2 (≈ 4.28 µM) | 2 (≈ 4.28 µM) | > 4 | 4 (≈ 8.56 µM) | 4 (≈ 8.56 µM) | 4 (≈ 8.56 µM) | 1 (≈ 2.14 µM) | < 1 | 1 (≈ 2.14 µM) |  |  |  |  |  |  |  |
| CCCCC(=O)N[C@@H](Cc1ccccc1)C(=O)N[C@H](C(=O)N1CCC[C@H]1C(=O)N[C@@H](Cc1c[nH]c2ccccc12)C(=O)N[C@@H](Cc1ccccc1)C(=O)N[C@@H](CO)C(=O)N[C@@H](CCCCN)C(=O)N[C@@H](Cc1ccccc1)C(=O)N[C@H](CC(C)C)C(=O)N[C@H](CCCCN)C(=O)N[C@@H](CCCNC(=N)N)C(=O)N[C@H](C(=O)N[C@@H](CC(C)C)C(N)=O)[C@@H](C)CC)C(C)C [Compound 2B, CH3(CH2)3CO-Phe-Val-Pro-Trp-Phe-Ser-Lys-Phe-DLeu-DLys-Arg-Ile-Leu-NH2] (Pentanoyl-FVPWFSKF[dL][dK]RIL-NH2) |  |  |  |  |  |  |  |  |  |  |  |  | 50 | 50 | 12.5 | 20.9 | highest leakage ability |  |  |
| CCCCCCC(=O)N[C@@H](Cc1ccccc1)C(=O)N[C@H](C(=O)N1CCC[C@H]1C(=O)N[C@@H](Cc1c[nH]c2ccccc12)C(=O)N[C@@H](Cc1ccccc1)C(=O)N[C@@H](CO)C(=O)N[C@@H](CCCCN)C(=O)N[C@@H](Cc1ccccc1)C(=O)N[C@H](CC(C)C)C(=O)N[C@H](CCCCN)C(=O)N[C@@H](CCCNC(=N)N)C(=O)N[C@H](C(=O)N[C@@H](CC(C)C)C(N)=O)[C@@H](C)CC)C(C)C [Compound 3B, CH3(CH2)5CO-Phe-Val-Pro-Trp-Phe-Ser-Lys-Phe-DLeu-DLys-Arg-Ile-Leu-NH2] (Heptanoyl-FVPWFSKF[dL][dK]RIL-NH2) |  |  |  |  |  |  |  |  |  |  |  |  | 25 | 50 | 3.12 | 9.33 | highest leakage ability | over 50% | about 50% |
